Here are results for 16 compounds from patent publication US9682965B2, “Fumagillol heterocyclic compounds and methods of making and using same” (Zafgen, Inc., priority 2015, dated 2017).

Where a name gives a salt, the structure may show the parent alone.

Assay [1] deals with Diet Induced Obese (DIO) C57BL/6 mice. Put plainly: 10 day DIO mouse model (body weight, food intake, hematology, blood chemistry). It is filed as in vivo. Conditions: 240 h; DIO mouse, 0.3 mpk sc, once a day for 10 days; read-out: DIO Mouse 10-day weight loss vs vehicle. In a few lines:
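DIO C57BL/6 mice on 60% kcal fat diet received compounds subcutaneously once daily for 10 days at 1.0, 0.5, 0.3, 0.1 or 0.03 mpk, in 10% DMSO in water, after 3-day vehicle acclimation. Body weight and food intake were recorded daily. Hematology and blood chemistry were taken on Day 11, 24 h post-final dose.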

The test system of assay [2] is Male Sprague Dawley rats on high fat diet. As to the kind of experiment: 11 day rat DIO model (body weight, food intake, hematology, blood chemistries). Format: in vivo. As to conditions: 264 h, DIO rat, once a day for 11 days, read-out: DIO Rat 11-day weight loss vs vehicle; for inhibition in vivo at 0.3 mg/kg: 0.3 mpk sc; for inhibition in vivo at 1 mg/kg: 1.0 mpk sc. The source says:
The objective of this study design is to investigate the efficacy of disclosed compounds in an 11 day rat DIO model used to screen compounds for pharmacologic efficacy on endpoints related to obesity and metabolism. Effects on body weight, food intake, hematology and blood chemistries were the primary readouts of this study design. […] Rats were fed Research Diets D12451 (45% High Fat) and provided water ad libitum. Rats were received and housed in the facility for at least two or three weeks prior to start of test article administration. On Day −4 or −3, rats were randomized into study groups based on body weight and body weights were continued to be recorded daily for the duration of the study. Daily food intake was assessed starting on Study Day −2 by weighing the hopper including the food to avoid loss of food in transfer.
Compounds were formulated into a 100% DMSO stock (at 9 mg/mL) prior to the start, and further diluted into the target working concentration using the vehicle of 10% DMSO in water. Prior to test article administration, starting on Day −3 a dosing acclimation occured with all animals receiving a subcutaneous injection of vehicle (10% DMSO) only for 3 days. Starting on Day 1, test compounds or vehicle were administered based on individual body weight, subcutaneously, once a day for 11 days. All animals were sacrificed on Day 11, approximately 2 hours following the final dosing on Day 11. After sacrifice, whole blood was collected and analyzed for hematology and blood chemistry parameters.
Compounds were tested vs. vehicle at various doses (1.0, 0.5, 0.3, 0.1, 0.03 mpk sc (mg per kg animal weight delivered subcutaneously), and the results are shown in Table 2 below.

Regarding `CO[C@@H]1[C@H](OC(=O)N2CCC(CCN3CC(F)(F)C3)C2)CC[C@]2(CO2)[C@H]1[C@@]1(C)O[C@@H]1CC=C(C)C` (stereo in doubt) [Example 57, (R)-(3R,4S,5S,6R)-5-methoxy-4-((2R,3R)-2-methyl-3-(3-methylbut-2-en-1-yl)oxiran-2-yl)-1-oxaspiro[2.5]octan-6-yl 3-(2-(3,3-difluoroazetidin-1-yl)ethyl)pyrrolidine-1-carboxylate], the inhibition in vivo at 0.3 mg/kg in assay [1] stood at 17.4%; in assay [2], 5.3%.

On to `CO[C@@H]1[C@H](OC(=O)N2CC(CCn3cccn3)C2)CC[C@]2(CO2)[C@H]1[C@@]1(C)O[C@@H]1CC=C(C)C` [Example 17, (3R,4S,5S,6R)-5-methoxy-4-((2R,3R)-2-methyl-3-(3-methylbut-2-enyl)oxiran-2-yl)-1-oxaspiro[2.5]octan-6-yl 3-(2-(1H-pyrazol-1-yl)ethyl)azetidine-1-carboxylate], for which the inhibition in vivo at 0.3 mg/kg in assay [1] was found to be 12.6%; in assay [2], 5.1%.

Turning to `CO[C@@H]1[C@H](OC(=O)N2CC(CCN3CCN(CC(F)F)CC3)C2)CC[C@]2(CO2)[C@H]1[C@@]1(C)O[C@@H]1CC=C(C)C` [Example 34, (3R,4S,5S,6R)-5-methoxy-4-((2R,3R)-2-methyl-3-(3-methylbut-2-en-1-yl)oxiran-2-yl)-1-oxaspiro[2.5]octan-6-yl 3-(2-(4-(2,2-difluoroethyl)piperazin-1-yl)ethyl)azetidine-1-carboxylate], the inhibition in vivo at 0.3 mg/kg came out at 9.3% in assay [1] and 5.1% in assay [2].

In the case of `CO[C@@H]1[C@H](OC(=O)N2CC[C@@H](CN3CCOCC3)C2)CC[C@]2(CO2)[C@H]1[C@@]1(C)O[C@@H]1CC=C(C)C` [Example 37, (S)-(3R,4S,5S,6R)-5-methoxy-4-((2R,3R)-2-methyl-3-(3-methylbut-2-en-1-yl)oxiran-2-yl)-1-oxaspiro[2.5]octan-6-yl 3-(morpholinomethyl)pyrrolidine-1-carboxylate formate], the inhibition in vivo at 0.3 mg/kg in assay [1] is 11.1%; in assay [2], 5.3%.

As for `CCN(CC)C[C@@H]1CCN1C(=O)O[C@@H]1CC[C@]2(CO2)[C@@H]([C@@]2(C)O[C@@H]2CC=C(C)C)[C@@H]1OC` [Example 40, (S)-((3R,4S,5S,6R)-5-methoxy-4-((2R,3R)-2-methyl-3-(3-methylbut-2-enyl)oxiran-2-yl)-1-oxaspiro[2.5]octan-6-yl) 2-((diethylamino)methyl)azetidine-1-carboxylate formate], the figures for the inhibition in vivo at 0.3 mg/kg in assay [1] and in assay [2] were 6% and 0.08%, respectively. Moreover, the inhibition in vivo at 1 mg/kg in assay [2] was found to be 4.73%.

On to `CCN(CC)C[C@H]1CCN1C(=O)O[C@@H]1CC[C@]2(CO2)[C@@H]([C@@]2(C)O[C@@H]2CC=C(C)C)[C@@H]1OC` [Example 43, (R)-((3R,4S,5S,6R)-5-methoxy-4-((2R,3R)-2-methyl-3-(3-methylbut-2-enyl)oxiran-2-yl)-1-oxaspiro[2.5]octan-6-yl) 2-((diethylamino)methyl)azetidine-1-carboxylate formate], for which, in assay [1], the inhibition in vivo at 0.3 mg/kg turned out to be 2.7%. In addition, in assay [2], the inhibition in vivo at 0.3 mg/kg was found to be 0.35% and the inhibition in vivo at 1 mg/kg turned out to be 2.9%.

Consider `CO[C@@H]1[C@H](OC(=O)N2CC(CCN3CCC(F)(F)C3)C2)CC[C@]2(CO2)[C@H]1[C@@]1(C)O[C@@H]1CC=C(C)C` [Example 45, (3R,4S,5S,6R)-5-methoxy-4-((2R,3R)-2-methyl-3-(3-methylbut-2-enyl)oxiran-2-yl)-1-oxaspiro[2.5]octan-6-yl 3-(2-(3,3-difluoropyrrolidin-1-yl)ethyl)azetidine-1-carboxylate], for which the results for the inhibition in vivo at 0.3 mg/kg in assay [1] and in assay [2] were 16.8% and 5.2%, respectively.

As to `CCN(CC)C[C@@H]1CCCN1C(=O)O[C@@H]1CC[C@]2(CO2)[C@@H]([C@@]2(C)O[C@@H]2CC=C(C)C)[C@@H]1OC` [Example 48, (S)-((3R,4S,5S,6R)-5-methoxy-4-((2R,3R)-2-methyl-3-(3-methylbut-2-enyl)oxiran-2-yl)-1-oxaspiro[2.5]octan-6-yl) 2-((diethylamino)methyl)pyrrolidine-1-carboxylate formate], the inhibition in vivo at 0.3 mg/kg in assay [1] stood at 7.2%; in assay [2], 0.65%. The inhibition in vivo at 1 mg/kg in assay [2] was 7.88%.

For the compound `CO[C@@H]1[C@H](OC(=O)N2CC[C@H](CCN3CCOCC3)C2)CC[C@]2(CO2)[C@H]1[C@@]1(C)O[C@@H]1CC=C(C)C` [Example 54, (S)-((3R,4S,5S,6R)-5-methoxy-4-((2R,3R)-2-methyl-3-(3-methylbut-2-enyl)oxiran-2-yl)-1-oxaspiro[2.5]octan-6-yl) 3-(2-morpholinoethyl)pyrrolidine-1-carboxylate], the inhibition in vivo at 0.3 mg/kg in assay [1] was 16.4%; in assay [2], 7.3%.

As to `CO[C@@H]1[C@H](OC(=O)N2CC[C@@H](CCN3CCOCC3)C2)CC[C@]2(CO2)[C@H]1[C@@]1(C)O[C@@H]1CC=C(C)C` [Example 55, (R)-(3R,4S,5S,6R)-5-methoxy-4-((2R,3R)-2-methyl-3-(3-methylbut-2-en-1-yl)oxiran-2-yl)-1-oxaspiro[2.5]octan-6-yl 3-(2-morpholinoethyl)pyrrolidine-1-carboxylate], the inhibition in vivo at 0.3 mg/kg in assay [1] came out at 12.2%; in assay [2], 7.5%.

For the compound `CCN(CC)C[C@H]1CCCN1C(=O)O[C@@H]1CC[C@]2(CO2)[C@@H]([C@@]2(C)O[C@@H]2CC=C(C)C)[C@@H]1OC` [Example 60, (R)-((3R,4S,5S,6R)-5-methoxy-4-((2R,3R)-2-methyl-3-(3-methylbut-2-enyl)oxiran-2-yl)-1-oxaspiro[2.5]octan-6-yl) 2-((diethylamino)methyl)pyrrolidine-1-carboxylate formate], the inhibition in vivo at 0.3 mg/kg in assay [1] worked out at 6.3%. Also, in assay [2], the inhibition in vivo at 0.3 mg/kg was found to be 1.95% and the inhibition in vivo at 1 mg/kg turned out to be 7.79%.

In the case of `CNC(=O)OCC1CN(C(=O)O[C@@H]2CC[C@]3(CO3)[C@@H]([C@@]3(C)O[C@@H]3CC=C(C)C)[C@@H]2OC)C1` [Example 69, (3R,4S,5S,6R)-5-methoxy-4-((2R,3R)-2-methyl-3-(3-methylbut-2-enyl)oxiran-2-yl)-1-oxaspiro[2.5]octan-6-yl 3-((methylcarbamoyloxy)methyl)azetidine-1-carboxylate], the values for the inhibition in vivo at 0.3 mg/kg in assay [1] and in assay [2] were 12.7% and 2.1%, respectively.

For the compound `CO[C@@H]1[C@H](OC(=O)N2CC(OC(=O)N3CCOCC3)C2)CC[C@]2(CO2)[C@H]1[C@@]1(C)O[C@@H]1CC=C(C)C` [Example 71, 1-(((3R,4S,5S,6R)-5-methoxy-4-((2R,3R)-2-methyl-3-(3-methylbut-2-enyl)oxiran-2-yl)-1-oxaspiro[2.5]octan-6-yloxy)carbonyl)azetidin-3-yl morpholine-4-carboxylate formate], the inhibition in vivo at 0.3 mg/kg in assay [1] worked out at 8.9%. In addition, in assay [2], the inhibition in vivo at 0.3 mg/kg is 10.3% and the inhibition in vivo at 1 mg/kg turned out to be 10.3%.

As for `CO[C@@H]1[C@H](OC(=O)N2CC(OC(=O)N3CCN(CC(F)F)CC3)C2)CC[C@]2(CO2)[C@H]1[C@@]1(C)O[C@@H]1CC=C(C)C` [Example 80, 1-(((3R,4S,5S,6R)-5-methoxy-4-((2R,3R)-2-methyl-3-(3-methylbut-2-enyl)oxiran-2-yl)-1-oxaspiro[2.5]octan-6-yloxy)carbonyl)azetidin-3-yl 4-(2,2-difluoroethyl)piperazine-1-carboxylate], the inhibition in vivo at 0.3 mg/kg in assay [1] came out at 16.5%; in assay [2] it was 7.3%.

On to `CO[C@@H]1[C@H](OC(=O)N2CC(CCC3CCN(CC(F)F)CC3)C2)CC[C@]2(CO2)[C@H]1[C@@]1(C)O[C@@H]1CC=C(C)C` [Example 91, (3R,4S,5S,6R)-5-methoxy-4-((2R,3R)-2-methyl-3-(3-methylbut-2-enyl)oxiran-2-yl)-1-oxaspiro[2.5]octan-6-yl 3-(2-(1-(2,2-difluoroethyl)piperidin-4-yl)ethyl)azetidine-1-carboxylate formate], for which the inhibition in vivo at 0.3 mg/kg was determined as 29.7% in assay [1] and 17.2% in assay [2].

`CO[C@@H]1[C@H](OC(=O)N2CC(CN3CCOCC3)C2)CC[C@]2(CO2)[C@H]1[C@@]1(C)O[C@@H]1CC=C(C)C` [Example 95, (3R,4S,5S,6R)-5-methoxy-4-((2R,3R)-2-methyl-3-(3-methylbut-2-enyl)oxiran-2-yl)-1-oxaspiro[2.5]octan-6-yl 3-(morpholinomethyl)azetidine-1-carboxylate]: the inhibition in vivo at 0.3 mg/kg in assay [1] worked out at 14.7%; in assay [2], 3%.
